The results in this text go back to US7674795B2, “Fluorene derivatives, composition containing said derivatives and the use thereof” (Aventis Pharma SA, priority 2005, dated 2010).

Structures can show the parent of a compound that is named as a salt.

Hsp82, sequence (P02829 whole entry): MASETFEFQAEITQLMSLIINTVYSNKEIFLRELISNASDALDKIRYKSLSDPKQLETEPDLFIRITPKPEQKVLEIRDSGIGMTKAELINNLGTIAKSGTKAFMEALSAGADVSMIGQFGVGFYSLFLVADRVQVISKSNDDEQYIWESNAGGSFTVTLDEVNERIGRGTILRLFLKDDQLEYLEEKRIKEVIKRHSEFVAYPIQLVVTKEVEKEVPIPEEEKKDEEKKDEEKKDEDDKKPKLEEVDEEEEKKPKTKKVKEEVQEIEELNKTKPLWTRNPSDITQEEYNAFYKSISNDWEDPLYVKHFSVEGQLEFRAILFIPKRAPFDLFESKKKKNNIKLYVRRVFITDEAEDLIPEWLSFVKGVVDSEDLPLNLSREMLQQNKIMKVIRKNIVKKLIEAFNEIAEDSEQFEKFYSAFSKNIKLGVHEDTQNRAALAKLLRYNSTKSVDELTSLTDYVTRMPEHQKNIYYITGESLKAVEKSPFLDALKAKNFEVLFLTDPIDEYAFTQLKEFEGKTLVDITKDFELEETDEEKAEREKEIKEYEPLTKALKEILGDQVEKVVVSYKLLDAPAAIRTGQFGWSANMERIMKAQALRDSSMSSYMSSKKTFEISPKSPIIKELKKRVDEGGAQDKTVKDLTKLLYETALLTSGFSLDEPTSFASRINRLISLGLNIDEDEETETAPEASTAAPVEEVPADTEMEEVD

This assay has as its target Hsp82 (Saccharomyces cerevisiae, UniProt P02829). Kind of assay: PK/LDH enzyme coupling test of the ATPase activity of Hsp82 (NADH decrease at 340 nm). Format: biochemical. The following applies: 1 μM Hsp82, 250 μM ATP, 37° C., pyruvate kinase/lactate dehydrogenase coupling, read-out: Hsp82 ATPase IC50. The gist of the method:
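Yeast Hsp82 ATPase was coupled to PK/LDH, with ADP formation followed continuously as NADH loss at 340 nm at 37 °C. The mixture was preincubated 30 min at 37 °C, and the reaction was started with compound at variable concentrations plus Hsp82 at 1 μM. Initial rates (μM ADP/min) came from the tangent slope at origin, expressed as % inhibition.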
Consider `O=C(NC1c2ccccc2-c2c(-c3nc4ccc(O)cc4[nH]3)cccc21)c1ccncc1` (racemic) [Example 117, N-[4-(6-hydroxy-1H-benzimidazol-2-yl)-9H-fluoren-9(R,S)-yl]-isonicotinamide], for which the IC50 fell in the range of 1 to 10 µM. With `O=C(NC1c2ccccc2-c2c(-c3nc4ccncc4[nH]3)cccc21)c1c(Br)cnc2[nH]cnc12` (racemic) [Example 118, [4-(3H-imidazo[4,5-c]pyridin-2-yl)-9H-fluoren-9(R,S)-yl]amide of 6-bromo-3H-imidazo[4,5-b]pyridine-7-carboxylic acid], the IC50 was less than 1 µM.

With `O=C(NC1c2ccccc2-c2c(-c3nc4ccncc4[nH]3)cccc21)c1cc(N2CCCCC2)nc2ccccc12` (racemic) [Example 119, [4-(3H-imidazo[4,5-c]pyridin-2-yl)-9H-fluoren-9(R,S)-yl]amide of 2-piperidin-1-yl-quinoline-4-carboxylic acid], the IC50 fell in the range of 1 to 10 µM. Consider `O=C(NC1c2ccccc2-c2c(-c3nc4ccncc4[nH]3)cccc21)c1ccnc(N2CCCC2)c1` (racemic) [Example 120, N-[4-(3H-imidazo[4,5-c]pyridin-2-yl)-9H-fluoren-9(R,S)-yl]-2-pyrrolidin-1-yl-isonicotinamide], for which the IC50 was in the range of 1 to 10 µM. As to `Cc1cc(C(=O)NC2c3ccccc3-c3c(-c4nc5ccncc5[nH]4)cccc32)cc(O)n1` (racemic) [Example 121, 2-hydroxy-N-[4-(3H-imidazo[4,5-c]pyridin-2-yl)-9H-fluoren-9(R,S)-yl]-6-methyl-isonicotinamide], the IC50 was 1 to 10 µM. `O=C(OC1c2ccccc2-c2c(-c3nc4ccncc4[nH]3)cccc21)c1ccncc1` (racemic) [Example 122, 4-(3H-imidazo[4,5-c]pyridin-2-yl)-9H-fluoren-9(R,S)-yl ester of isonicotinic acid]: the IC50 was less than 1 µM.

Regarding `O=C(OC1c2ccccc2-c2c(-c3nc4ccncc4[nH]3)cccc21)c1cccc2ncccc12` (racemic) [Example 124, 4-(3H-imidazo[4,5-c]pyridin-2-yl)-9H-fluoren-9(R,S)-yl of 5-quinolinecarboxylic acid], the IC50 was in the range of 1 to 10 µM. For the molecule `CC(C)(C)OC(=O)Nc1cc(C(=O)NC2c3ccccc3-c3c(-c4nc5ccncc5[nH]4)cccc32)ccn1` (racemic) [Example 125, N-[4-(3H-imidazo[4,5-c]pyridin-2-yl)-9H-fluoren-9(R,S)-yl]amide of 2-tert-butoxycarbonylaminoisonicotinic acid], the half-inhibitory concentration (IC50) is less than 1 µM. With `NC(=O)c1cccc(C(=O)NC2c3ccccc3-c3c(-c4nc5ccncc5[nH]4)cccc32)c1` (racemic) [Example 126, N-[4-(3H-imidazo[4,5-c]pyridin-2-yl)-9H-fluoren-9(R,S)-yl]isophthalamide], the IC50 fell in the range of 1 to 10 µM.

Turning to `O=C(N[C@H]1c2ccccc2-c2c(-c3nc4ccncc4[nH]3)cccc21)c1cccc2ncccc12` (single isomer, unassigned) [Example 14A], the IC50 is less than 1 µM. Next, `O=C(N[C@H]1c2ccccc2-c2c(-c3nc4ccncc4[nH]3)cccc21)c1cccc2ncccc12` (single isomer, unassigned) [Example 14B]: 10 to 100 µM. Turning to `c1ccc2c(c1)Cc1cccc(-c3nc4cnccc4[nH]3)c1-2` [Example 7, 2-(9H-fluoren-4-yl)-3H-imidazo[4,5-c]pyridine], the IC50 is 10 to 100 µM. Regarding `O/N=C1\c2ccccc2-c2c1cccc2-c1nc2cnccc2[nH]1` [Example 19, 4-(3H-imidazo[4,5-c]pyridin-2-yl)-fluoren-9-one oxime (Z)], the half-maximal inhibitory concentration (IC50) was in the range of 1 to 10 µM. Consider `O/N=C1/c2ccccc2-c2c1cccc2-c1nc2cnccc2[nH]1` [Example 23, 4-(3H-imidazo[4,5-c]pyridin-2-yl)-fluoren-9-one oxime (E)], for which the IC50 was less than 1 µM. `NC(=O)NN=C1c2ccccc2-c2c1cccc2-c1nc2ccncc2[nH]1` [Example 30, trifluoroacetate of 4-(3H-imidazo[4,5-c]pyridin-2-yl)-fluoren-9-one semicarbazone (Z, E)]: the IC50 was 10 to 100 µM.

Broadly, the IC50 is the concentration that inhibits the measured activity by half.
